Common to all, as to type: biochemical
Assay [1] concerns the target Nitric oxide synthase (endothelial, human recombinant) eNOS (Homo sapiens, UniProt P29474). The assay is described as follows: Human eNOS enzyme assay ([3H]L-arginine to [3H]L-citrulline).
The target of assay [2] is Nitric oxide synthase (neuronal, human recombinant) nNOS (Homo sapiens, UniProt P29475). The assay is described as follows: Human nNOS enzyme assay ([3H]L-arginine to [3H]L-citrulline).
Assay [3] has as its target Recombinant human inducible NOS (iNOS) (Homo sapiens, UniProt P35228). The assay is described as follows: Human iNOS enzyme assay, radiometric.
The mark [4] stands for this setting: human recombinant eNOS, values without parentheses, read-out: heNOS IC50.
Where [5] appears, read: human recombinant nNOS, values without parentheses, read-out: hnNOS IC50.
Setting [6] is: human recombinant iNOS, values without parentheses, read-out: hiNOS IC50.
[7] abbreviates: human enzymes, ratio of eNOS IC50 to nNOS IC50.

Read-outs that look alike come from different tables or passages of the source.

Chain of Nitric oxide synthase (neuronal, human recombinant) nNOS (P29475 whole entry): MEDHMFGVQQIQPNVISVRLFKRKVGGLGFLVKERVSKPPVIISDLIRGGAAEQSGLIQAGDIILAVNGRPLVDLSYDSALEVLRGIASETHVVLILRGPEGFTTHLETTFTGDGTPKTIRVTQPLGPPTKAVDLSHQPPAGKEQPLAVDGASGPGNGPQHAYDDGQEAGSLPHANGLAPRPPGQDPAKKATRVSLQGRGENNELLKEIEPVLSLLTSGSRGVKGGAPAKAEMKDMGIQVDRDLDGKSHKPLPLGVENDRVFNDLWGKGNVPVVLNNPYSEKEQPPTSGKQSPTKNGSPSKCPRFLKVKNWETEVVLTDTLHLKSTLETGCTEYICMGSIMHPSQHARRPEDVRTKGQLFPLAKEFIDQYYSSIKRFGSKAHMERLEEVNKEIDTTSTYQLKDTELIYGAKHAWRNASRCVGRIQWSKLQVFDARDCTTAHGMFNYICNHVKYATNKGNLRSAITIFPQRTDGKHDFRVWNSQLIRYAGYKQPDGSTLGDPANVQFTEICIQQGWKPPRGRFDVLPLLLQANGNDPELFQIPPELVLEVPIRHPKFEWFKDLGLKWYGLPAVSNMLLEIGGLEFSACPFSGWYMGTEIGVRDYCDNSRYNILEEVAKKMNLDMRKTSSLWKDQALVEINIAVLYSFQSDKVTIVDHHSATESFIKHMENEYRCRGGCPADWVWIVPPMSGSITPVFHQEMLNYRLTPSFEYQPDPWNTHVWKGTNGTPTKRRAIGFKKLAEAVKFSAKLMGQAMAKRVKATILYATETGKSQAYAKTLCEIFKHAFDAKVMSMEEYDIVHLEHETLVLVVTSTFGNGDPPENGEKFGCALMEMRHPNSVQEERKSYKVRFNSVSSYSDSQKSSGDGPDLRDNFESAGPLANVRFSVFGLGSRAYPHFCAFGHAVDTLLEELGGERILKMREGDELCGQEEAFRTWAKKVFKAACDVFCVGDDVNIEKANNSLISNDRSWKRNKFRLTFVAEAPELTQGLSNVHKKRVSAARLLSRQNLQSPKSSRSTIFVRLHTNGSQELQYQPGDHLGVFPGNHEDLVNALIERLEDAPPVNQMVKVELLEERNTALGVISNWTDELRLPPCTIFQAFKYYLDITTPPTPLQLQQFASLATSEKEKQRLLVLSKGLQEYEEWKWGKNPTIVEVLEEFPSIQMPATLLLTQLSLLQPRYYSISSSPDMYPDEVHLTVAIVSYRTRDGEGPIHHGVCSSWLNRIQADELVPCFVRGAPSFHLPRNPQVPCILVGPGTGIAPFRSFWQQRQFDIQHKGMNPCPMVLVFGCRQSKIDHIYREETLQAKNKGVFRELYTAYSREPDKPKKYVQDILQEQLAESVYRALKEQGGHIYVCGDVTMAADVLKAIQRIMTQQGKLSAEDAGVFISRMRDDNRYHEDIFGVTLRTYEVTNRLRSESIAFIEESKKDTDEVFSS
Chain of Nitric oxide synthase (endothelial, human recombinant) eNOS (P29474 2-1203): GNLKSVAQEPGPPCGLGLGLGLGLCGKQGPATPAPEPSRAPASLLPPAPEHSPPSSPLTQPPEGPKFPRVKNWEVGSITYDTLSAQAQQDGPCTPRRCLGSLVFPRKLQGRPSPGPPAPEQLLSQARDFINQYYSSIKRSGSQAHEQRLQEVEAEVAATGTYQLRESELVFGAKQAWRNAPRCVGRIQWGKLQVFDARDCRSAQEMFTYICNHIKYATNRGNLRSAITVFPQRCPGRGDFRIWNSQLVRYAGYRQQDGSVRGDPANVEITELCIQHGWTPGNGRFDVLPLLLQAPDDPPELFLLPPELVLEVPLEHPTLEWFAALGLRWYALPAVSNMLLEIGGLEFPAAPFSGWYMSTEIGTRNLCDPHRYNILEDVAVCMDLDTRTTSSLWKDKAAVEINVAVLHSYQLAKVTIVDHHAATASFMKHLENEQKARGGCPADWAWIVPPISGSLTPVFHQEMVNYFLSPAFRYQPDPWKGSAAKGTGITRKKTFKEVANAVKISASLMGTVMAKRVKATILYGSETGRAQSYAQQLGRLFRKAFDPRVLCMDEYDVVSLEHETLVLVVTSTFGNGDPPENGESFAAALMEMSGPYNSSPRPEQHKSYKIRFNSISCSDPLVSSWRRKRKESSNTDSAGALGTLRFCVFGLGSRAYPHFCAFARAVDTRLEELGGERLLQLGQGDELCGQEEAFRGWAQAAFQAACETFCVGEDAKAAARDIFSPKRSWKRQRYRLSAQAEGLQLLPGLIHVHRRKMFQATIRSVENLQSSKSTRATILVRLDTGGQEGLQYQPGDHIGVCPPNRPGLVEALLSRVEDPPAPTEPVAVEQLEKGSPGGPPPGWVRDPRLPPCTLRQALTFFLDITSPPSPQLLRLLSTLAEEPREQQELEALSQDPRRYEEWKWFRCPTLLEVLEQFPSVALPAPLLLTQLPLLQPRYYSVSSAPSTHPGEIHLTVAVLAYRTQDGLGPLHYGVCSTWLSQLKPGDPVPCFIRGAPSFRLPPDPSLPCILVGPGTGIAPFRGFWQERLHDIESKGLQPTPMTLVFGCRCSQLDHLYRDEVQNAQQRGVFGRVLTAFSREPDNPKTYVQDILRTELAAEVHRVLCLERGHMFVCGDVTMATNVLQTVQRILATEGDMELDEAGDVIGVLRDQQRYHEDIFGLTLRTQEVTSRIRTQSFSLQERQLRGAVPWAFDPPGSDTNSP
Chain of Recombinant human inducible NOS (iNOS) (P35228 whole entry): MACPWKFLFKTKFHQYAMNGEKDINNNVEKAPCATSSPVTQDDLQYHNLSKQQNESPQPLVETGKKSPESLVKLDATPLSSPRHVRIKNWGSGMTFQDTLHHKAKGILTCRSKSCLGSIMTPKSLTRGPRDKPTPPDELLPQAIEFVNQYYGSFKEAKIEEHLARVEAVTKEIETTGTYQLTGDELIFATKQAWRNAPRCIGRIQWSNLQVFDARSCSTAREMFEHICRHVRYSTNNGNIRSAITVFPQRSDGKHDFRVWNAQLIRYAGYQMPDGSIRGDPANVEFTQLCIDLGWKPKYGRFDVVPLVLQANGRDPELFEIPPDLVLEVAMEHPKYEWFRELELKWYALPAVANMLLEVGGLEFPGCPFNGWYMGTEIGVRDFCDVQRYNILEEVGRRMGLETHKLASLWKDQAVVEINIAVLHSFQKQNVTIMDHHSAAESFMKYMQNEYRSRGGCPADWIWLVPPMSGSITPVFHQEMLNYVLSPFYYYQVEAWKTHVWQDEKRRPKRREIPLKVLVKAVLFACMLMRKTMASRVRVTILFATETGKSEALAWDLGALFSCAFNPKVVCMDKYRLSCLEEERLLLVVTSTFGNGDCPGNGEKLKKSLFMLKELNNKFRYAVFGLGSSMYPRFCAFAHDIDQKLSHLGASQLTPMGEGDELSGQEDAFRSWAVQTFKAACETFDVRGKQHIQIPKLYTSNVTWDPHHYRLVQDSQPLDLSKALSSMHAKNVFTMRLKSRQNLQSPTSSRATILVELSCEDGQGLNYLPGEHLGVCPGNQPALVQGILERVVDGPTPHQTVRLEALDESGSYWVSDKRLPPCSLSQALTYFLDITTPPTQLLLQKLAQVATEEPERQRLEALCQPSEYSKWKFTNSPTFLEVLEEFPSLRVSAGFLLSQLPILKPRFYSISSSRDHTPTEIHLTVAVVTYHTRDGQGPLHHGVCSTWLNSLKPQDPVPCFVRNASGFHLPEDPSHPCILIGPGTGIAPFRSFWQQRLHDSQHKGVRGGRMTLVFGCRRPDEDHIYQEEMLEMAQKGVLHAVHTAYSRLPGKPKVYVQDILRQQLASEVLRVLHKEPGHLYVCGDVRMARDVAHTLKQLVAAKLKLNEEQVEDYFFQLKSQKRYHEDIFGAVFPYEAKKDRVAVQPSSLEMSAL

On to `CCN(CC)CCCN1C(=O)CCc2cc(NC(=N)c3cccs3)ccc21` [Example 7, N-(1-(3-(diethylamino)propyl)-2-oxo-1,2,3,4-tetrahydroquinolin-6-yl)thiophene-2-carboximidamide], for which the results for the IC50 in assay [1] (setting [4]), in assay [2] (setting [5]) and in assay [3] (setting [6]) were 13.9 µM, 0.869 µM and over 100 µM, respectively. Moreover, in assay [2], the “Selectivity eNOS/nNOS” value was found to be 16.

`CN1CCC(N2CCc3cc(NC(=N)c4cccs4)ccc32)C1` (stereo not shown) [Example 50, N-(1-(1-Methylpyrrolidin-3-yl)indolin-5-yl)thiophene-2-carboximidamide]: the values for the 50% inhibitory concentration (IC50) in assay [1] (setting [4]) and in assay [2] (setting [5]) were 21.2 µM and 0.43 µM, respectively.

As to `CN1CCCC1CCN1CCCCc2cc(NC(=N)c3cccs3)ccc21` (stereo not shown) [Example 45, N-(1-(2-(1-Methylpyrrolidin-2-yl)ethyl)-2,3,4,5-tetrahydro-1H-benzo[b]azepin-7-yl)thiophene-2-carboximidamide], the IC50 is 30.8 µM in assay [1] (read-out: heNOS IC50) and 1.8 µM in assay [2] (setting [5]).

As to `N=C(Nc1ccc2c(c1)CCCCN2C1CCNCC1)c1cccs1` [Example 58, N-(1-(piperidin-4-yl)-2,3,4,5-tetrahydro-1H-benzo[b]azepin-7-yl)thiophene-2-carboximidamide], the IC50 in assay [1] (read-out: heNOS IC50) is 66.3 µM; in assay [2] (setting [5]), 2.3 µM; in assay [3] (setting [6]), over 100 µM.

In the case of `CN(C)CCCN1CCCc2cc(NC(=N)c3cccs3)ccc21` [Example 59, N-(1-(3-(Dimethylamino)propyl)-1,2,3,4-tetrahydroquinolin-6-yl)thiophene-2-carboximidamide], the values for the IC50 in assay [1] (read-out: heNOS IC50), in assay [2] (setting [5]) and in assay [3] (setting [6]) were 22.4 µM, 0.27 µM and 34.5 µM, respectively.

`CN(C)CCCC1Cc2cc(NC(=N)c3cccs3)ccc2NC1=O.Cl.Cl` (stereo not shown) [Example 10, N-(3-(3-(dimethylamino)propyl)-2-oxo-1,2,3,4-tetrahydroquinolin-6-yl)thiophene-2-carboximidamide dihydrochloride]: the IC50 in assay [1] (setting [4]) is 10.8 µM; in assay [2] (setting [5]), 0.198 µM; in assay [3] (setting [6]), over 100 µM. The “Selectivity eNOS/nNOS” value in assay [2] (setting [7]) is recorded as 54.5.

In the case of `CNC1CCC(N2CCc3cc(NC(=N)c4cccs4)ccc32)CC1` (stereo not shown) [Example 70, N-(1-(4-(Methylamino)cyclohexyl)indolin-5-yl)thiophene-2-carboximidamide], the IC50 in assay [1] (setting [4]) was determined as 17.9 µM; in assay [2] (setting [5]), 0.21 µM. Further, in assay [2] (setting [7]), the “Selectivity eNOS/nNOS” value was found to be 86.5.

With `CNCCCN1CCCc2cc(NC(=N)c3cccs3)ccc21` [Example 63, N-(1-(3-(methylamino)propyl)-2,3,4-tetrahydroquinolin-6-yl)thiophene-2-carboximidamide], the figures for the half-maximal inhibitory concentration (IC50) in assay [1] (read-out: heNOS IC50) and in assay [2] (setting [5]) were 22.5 µM and 0.235 µM, respectively.

For `CN(C)CCN1CCCc2cc(NC(=N)c3cccs3)cc(F)c21` [Example 42, N-(1-(2-(Dimethylamino)ethyl)-8-fluoro-1,2,3,4-tetrahydroquinolin-6-yl)thiophene-2-carboximidamide], the figures for the IC50 in assay [1] (read-out: heNOS IC50), in assay [2] (setting [5]) and in assay [3] (setting [6]) were 24.3 µM, 0.09 µM and over 100 µM, respectively.

With `N=C(Nc1ccc2c(c1)CCC(=O)N2CCCN1CCCC1)c1cccs1` [Example 8, N-(1-(3-(pyrrolidin-1-yl)propyl)-2-oxo-1,2,3,4-tetrahydroquinolin-6-yl)thiophene-2-carboximidamide], the IC50 in assay [1] (read-out: heNOS IC50) was found to be 24.5 µM.

Regarding `CN1CCC(N2C(=O)CCc3cc(NC(=N)c4cccs4)ccc32)CC1` [Example 22, N-(1-(1-Methylpiperidin-4-yl)-2-oxo-1,2,3,4-tetrahydroquinolin-6-yl)thiophene-2-carboximidamide], the IC50 was 151 µM in assay [1] (heNOS IC50), 1.72 µM in assay [2] (hnNOS IC50) and over 100 µM in assay [3] (hiNOS IC50). Besides, in assay [2], the “Selectivity eNOS/nNOS” value worked out at 87.8.

As to `N=C(Nc1ccc2c(c1)CCCC(=O)N2CCN1CCCC1)c1cccs1` [Example 26, N-(2-Oxo-1-(2-(pyrrolidin-1-yl)ethyl)-2,3,4,5-tetrahydro-1H-benzo[b]azepin-7-yl)thiophene-2-carboximidamide], the IC50 is 80.1 µM in assay [1] (setting [4]), 9.91 µM in assay [2] (setting [5]) and over 100 µM in assay [3] (setting [6]). The “Selectivity eNOS/nNOS” value in assay [2] (setting [7]) worked out at 8.1.

With `CCN(CC)CCN1CCCc2cc(NC(=N)c3cccs3)ccc21` [Example 53, N-(1-(2-(diethylamino)ethyl)-1,2,3,4-tetrahydroquinolin-6-yl)thiophene-2-carboximidamide], the IC50 in assay [2] (setting [5]) turned out to be 0.25 µM.

Regarding `CC(CN1CCCc2cc(NC(=N)c3cccs3)ccc21)N1CCCC1` (stereo not shown) [Example 16, N-(1-(2-(pyrrolidin-1-yl)propyl)-1,2,3,4-tetrahydroquinolin-6-yl)thiophene-2-carboximidamide], the IC50 in assay [1] (setting [4]) stood at 33.7 µM; in assay [2] (setting [5]), 0.7 µM; in assay [3] (setting [6]), 19.4 µM. Moreover, the “Selectivity eNOS/nNOS” value in assay [2] (setting [7]) is given as 48.1.

`CN(C)CCN1C(=O)CCCc2cccc(NC(=N)c3cccs3)c21` [Example 33, N-(1-(2-(Dimethylamino)ethyl)-2-oxo-2,3,4,5-tetrahydro-1H-benzo[b]azepin-9-yl)thiophene-2-carboximidamide]: the IC50 is 193 µM in assay [1] (setting [4]), 2.2 µM in assay [2] (setting [5]) and over 100 µM in assay [3] (setting [6]). Moreover, in assay [2] (setting [7]), the “Selectivity eNOS/nNOS” value amounted to 90.

In the case of `N=C(Nc1ccc2c(c1)CCCN2CCN1CCOCC1)c1cccs1` [Example 64, N-(1-(2-morpholinoethyl)-1,2,3,4-tetrahydroquinolin-6-yl)thiophene-2-carboximidamide], the IC50 was determined as 82.5 µM in assay [1] (setting [4]) and 0.68 µM in assay [2] (setting [5]). The “Selectivity eNOS/nNOS” value in assay [2] (setting [7]) is reported as 121.

Regarding `CN1CCC(N2CCCCc3cc(NC(=N)c4cccs4)ccc32)C1` (stereo not shown) [Example 46, N-(1-(1-Methylpyrrolidin-3-yl)-2,3,4,5-tetrahydro-1H-benzo[b]azepin-7-yl)thiophene-2-carboximidamide], the IC50 was found to be 60.5 µM in assay [1] (read-out: heNOS IC50) and 0.08 µM in assay [2] (read-out: hnNOS IC50).

On to `CNCCN1CCCc2cc(NC(=N)c3cccs3)cc(F)c21.Cl.Cl` [Example 52, N-(8-fluoro-1-(2-(methylamino)ethyl)-1,2,3,4-tetrahydroquinolin-6-yl)thiophene-2-carboximidamide dihydrochloride], for which the 50% inhibitory concentration (IC50) in assay [1] (setting [4]) came to 13.5 µM; in assay [2] (setting [5]), 0.3 µM. Further, the “Selectivity eNOS/nNOS” value in assay [2] (setting [7]) is 45.

As to `N=C(Nc1ccc2c(c1)CCCCN2CCN1CCCCC1)c1cccs1` [Example 40, N-(1-(2-(Piperidin-1-yl)ethyl)-2,3,4,5-tetrahydro-1H-benzo[b]azepin-7-yl)thiophene-2-carboximidamide], the figures for the IC50 in assay [1] (read-out: heNOS IC50), in assay [2] (setting [5]) and in assay [3] (setting [6]) were 56.3 µM, 1.9 µM and over 100 µM, respectively.

As for `CN(CCO)CCCN1CCCc2cc(NC(=N)c3cccs3)ccc21` [Example 69, N-(1-(3-((2-Hydroxyethyl)(methyl)amino)propyl)-1,2,3,4-tetrahydroquinolin-6-yl)thiophene-2-carboximidamide], the results for the concentration for half-maximal inhibition (IC50) in assay [1] (setting [4]) and in assay [2] (setting [5]) were 39.9 µM and 0.078 µM, respectively. The “Selectivity eNOS/nNOS” value in assay [2] (setting [7]) was 511.

Take `CCN(C)CCN1CCCc2cc(NC(=N)c3cccs3)ccc21` [Example 51, N-(1-(2-(ethyl(methyl)amino)ethyl)-1,2,3,4-tetrahydroquinolin-6-yl)thiophene-2-carboximidamide]: the IC50 in assay [1] (read-out: heNOS IC50) is 33.3 µM; in assay [2] (setting [5]), 0.09 µM. The “Selectivity eNOS/nNOS” value in assay [2] is 370.

Take `N=C(Nc1ccc2c(c1)CCC(=O)N2CCCN1CCOCC1)c1cccs1` [Example 5, N-(1-(3-morpholinopropyl)-2-oxo-1,2,3,4-tetrahydroquinolin-6-yl)thiophene-2-carboximidamide]: the figures for the concentration for half-maximal inhibition (IC50) in assay [1] (setting [4]) and in assay [2] (setting [5]) were 105 µM and 5.46 µM, respectively. Further, the “Selectivity eNOS/nNOS” value in assay [2] is on record as 19.2.

`N=C(Nc1ccc2c(c1)CCN2C1CCNC1)c1cccs1` (stereo not shown) [Example 49, N-(1-(Pyrrolidin-3-yl)indolin-5-yl)thiophene-2-carboximidamide]: the values for the concentration for half-maximal inhibition (IC50) in assay [1] (setting [4]) and in assay [2] (setting [5]) were 5.45 µM and 0.08 µM, respectively.

As for `N=C(Nc1ccc2c(c1)CCN2CCN1CCCC1)c1cccs1` [Example 67, N-(1-(2-(Pyrrolidin-1-yl)ethyl)indolin-5-yl)thiophene-2-carboximidamide], the values for the IC50 in assay [1] (setting [4]) and in assay [2] (setting [5]) were 26.9 µM and 0.092 µM, respectively. Further, the “Selectivity eNOS/nNOS” value in assay [2] (setting [7]) amounted to 292.

With `CNCCN1CCCCc2cc(NC(=N)c3cccs3)ccc21` [Example 36, N-(1-(2-(Methylamino)ethyl)-2,3,4,5-tetrahydro-1H-benzo[b]azepin-7-yl)thiophene-2-carboximidamide], the IC50 in assay [1] (read-out: heNOS IC50) was 47.1 µM; in assay [2] (setting [5]), 0.38 µM.

In the case of `N=C(Nc1ccc2c(c1)CCC(=O)N2CCCN1CCCCC1)c1cccs1` [Example 9, N-(1-(3-(piperidin-1-yl)propyl)-2-oxo-1,2,3,4-tetrahydroquinolin-6-yl)thiophene-2-carboximidamide], the 50% inhibitory concentration (IC50) stood at 10.2 µM in assay [1] (setting [4]) and 0.798 µM in assay [2] (setting [5]). Moreover, in assay [2] (setting [7]), the “Selectivity eNOS/nNOS” value is reported as 12.8.

Turning to `CN(C)CCN1CCc2cc(NC(=N)c3cccs3)ccc21` [Example 68, N-(1-(2-(Dimethylamino)ethyl)indolin-5-yl)thiophene-2-carboximidamide], the values for the IC50 in assay [1] (setting [4]) and in assay [2] (setting [5]) were 12.9 µM and 0.041 µM, respectively. Besides, the “Selectivity eNOS/nNOS” value in assay [2] (setting [7]) is given as 316.

Turning to `CNC1CCC(N2CCc3cc(NC(=N)c4cccs4)ccc32)CC1` (stereo not shown) [Example 71, N-(1-(4-(Methylamino)cyclohexyl)indolin-5-yl)thiophene-2-carboximidamide], the IC50 in assay [1] (setting [4]) was 34.1 µM; in assay [2] (setting [5]), 0.105 µM.

Turning to `CN1CCCC1CCN1C(=O)CCc2cc(NC(=N)c3cccs3)ccc21` (stereo not shown) [Example 13, N-(1-(2-(1-methylpyrrolidin-2-yl)ethyl)-2-oxo-1,2,3,4-tetrahydroquinolin-6-yl)thiophene-2-carboximidamide], the IC50 in assay [1] (setting [4]) amounted to 68.9 µM; in assay [2] (setting [5]), 1.1 µM. Further, the “Selectivity eNOS/nNOS” value in assay [2] (setting [7]) is recorded as 62.6.

The IC50 is the midpoint of a concentration-inhibition curve.

Source of the values: patent US8173813B2, “Quinolone and tetrahydroquinolone and related compounds having NOS inhibitory activity” (NeurAxon, Inc., priority 2007, dated 2012).
